Measurements published in patent US8486951B2 (Deciphera Pharmaceuticals, LLC, priority 2008, dated 2013).
Like-named read-outs stand apart in the source and are kept apart here.

Tests used:
EBC-1 cells = test: EBC-1 Cell Proliferation Assay (resazurin); format: cell-based; details: 67 h + 5 h resazurin, read-out: EBC1 Cell Proliferation
Protocol: EBC-1 cells (catalog #JCRB0820) were obtained from the Japan Health Science Research Resources Bank, Osaka, Japan. Briefly, cells were grown in DMEM supplemented with 10% characterized fetal bovine serum (Invitrogen, Carlsbad, Calif.) at 37 degrees Celsius, 5% CO2, 95% humidity. Cells were allowed to expand until reaching 70-95% confluency at which point they were subcultured or harvested for assay use.
EBC-1 Cell Proliferation Assay
(§1) A serial dilution of test compound was dispensed into a 96-well black clear bottom plate (Corning, Corning, N.Y.). For each cell line, five thousand cells were added per well in 200 μL complete growth medium. Plates were incubated for 67 hours at 37 degrees Celsius, 5% CO2, 95% humidity. […] Data was analyzed using Prism software (Graphpad, San Diego, Calif.) to calculate IC50 values.

PDGFRβ = target: T1, PDGFRβ (Homo sapiens, UniProt P09619); test: PDGFRβ Kinase Assay; format: biochemical; details: read-out: PDGFRb Enzyme Assay
T1 construct: purchased Invitrogen
T1 sequence (P09619 33-1106): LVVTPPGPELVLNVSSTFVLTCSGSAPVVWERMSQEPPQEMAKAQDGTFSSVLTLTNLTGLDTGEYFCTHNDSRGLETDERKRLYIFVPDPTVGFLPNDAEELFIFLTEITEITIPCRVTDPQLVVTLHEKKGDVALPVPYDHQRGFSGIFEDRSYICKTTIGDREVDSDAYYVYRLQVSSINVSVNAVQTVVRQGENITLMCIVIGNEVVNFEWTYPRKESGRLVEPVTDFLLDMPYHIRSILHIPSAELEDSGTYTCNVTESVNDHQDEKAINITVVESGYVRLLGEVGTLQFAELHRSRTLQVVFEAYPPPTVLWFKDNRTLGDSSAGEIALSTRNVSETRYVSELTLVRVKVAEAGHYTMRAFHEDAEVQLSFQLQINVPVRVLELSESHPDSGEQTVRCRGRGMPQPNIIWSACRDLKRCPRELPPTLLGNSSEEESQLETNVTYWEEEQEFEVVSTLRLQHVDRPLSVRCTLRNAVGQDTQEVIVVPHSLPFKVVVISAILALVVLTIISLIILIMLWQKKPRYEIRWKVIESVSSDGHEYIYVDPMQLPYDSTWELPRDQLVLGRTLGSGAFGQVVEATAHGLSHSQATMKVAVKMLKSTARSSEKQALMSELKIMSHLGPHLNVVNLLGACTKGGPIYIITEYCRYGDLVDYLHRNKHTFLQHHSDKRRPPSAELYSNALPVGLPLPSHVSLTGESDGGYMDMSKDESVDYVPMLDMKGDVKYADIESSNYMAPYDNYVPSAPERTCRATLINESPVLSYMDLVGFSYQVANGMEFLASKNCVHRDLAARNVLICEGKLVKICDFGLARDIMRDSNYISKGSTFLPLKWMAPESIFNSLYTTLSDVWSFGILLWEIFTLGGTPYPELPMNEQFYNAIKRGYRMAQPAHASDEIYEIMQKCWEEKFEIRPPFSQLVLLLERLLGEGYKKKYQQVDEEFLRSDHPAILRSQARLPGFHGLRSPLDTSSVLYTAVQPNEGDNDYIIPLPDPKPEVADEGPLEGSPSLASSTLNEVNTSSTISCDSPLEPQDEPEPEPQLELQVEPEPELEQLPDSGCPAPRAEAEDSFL

[1] = target: T2, c-MET kinase (Seq. ID no. 2) (Homo sapiens, UniProt P08581); test: c-MET Kinase Assay (ADP production, pyruvate kinase/lactate dehydrogenase coupled); format: biochemical; details: read-out: cMET Enzyme Assay
T2 construct: purchased Invitrogen PV3143
T2 sequence (P08581 with tags, fused parts or gaps): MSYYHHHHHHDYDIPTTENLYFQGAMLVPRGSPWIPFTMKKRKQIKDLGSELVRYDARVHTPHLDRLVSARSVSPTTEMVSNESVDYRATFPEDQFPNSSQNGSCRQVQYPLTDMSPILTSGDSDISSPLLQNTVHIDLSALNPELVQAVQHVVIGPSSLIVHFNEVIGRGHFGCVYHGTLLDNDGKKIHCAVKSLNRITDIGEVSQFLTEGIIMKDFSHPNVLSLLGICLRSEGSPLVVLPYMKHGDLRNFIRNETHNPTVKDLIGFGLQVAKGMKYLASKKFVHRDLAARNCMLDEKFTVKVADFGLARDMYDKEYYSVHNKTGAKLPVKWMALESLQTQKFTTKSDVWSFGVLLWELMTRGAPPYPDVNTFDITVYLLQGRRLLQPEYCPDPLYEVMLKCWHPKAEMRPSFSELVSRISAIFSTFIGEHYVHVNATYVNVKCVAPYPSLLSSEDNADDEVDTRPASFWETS
Protocol: In this assay, the oxidation of NADH (thus the decrease at A340 nm) was continuously monitored spectrophometrically. […] Test compounds were incubated with C-Met (Seq. ID no. 2) and other reaction reagents at 22° C. for 0.5 h before ATP (100 μM) was added to start the reaction. The absorption at 340 nm was monitored continuously for 2 hours at 30° C. on Polarstar Optima plate reader (BMG). The reaction rate was calculated using the 1.0 to 2.0 h time frame. Percent inhibition was obtained by comparison of reaction rate with that of a control (i.e. with no test compound). IC50 values were calculated from a series of percent inhibition values determined at a range of inhibitor concentrations using software routines as implemented in the GraphPad Prism software package.

[2] = target: T3, c-KIT kinase (Seq. ID no. 1) (Homo sapiens, UniProt P10721); test: c-KIT kinase Assay (ADP production, pyruvate kinase/lactate dehydrogenase coupled); format: biochemical; details: read-out: cKIT Enzyme Assay
T3 construct: purchased ProQinase
T3 sequence (P10721 with tags, fused parts or gaps): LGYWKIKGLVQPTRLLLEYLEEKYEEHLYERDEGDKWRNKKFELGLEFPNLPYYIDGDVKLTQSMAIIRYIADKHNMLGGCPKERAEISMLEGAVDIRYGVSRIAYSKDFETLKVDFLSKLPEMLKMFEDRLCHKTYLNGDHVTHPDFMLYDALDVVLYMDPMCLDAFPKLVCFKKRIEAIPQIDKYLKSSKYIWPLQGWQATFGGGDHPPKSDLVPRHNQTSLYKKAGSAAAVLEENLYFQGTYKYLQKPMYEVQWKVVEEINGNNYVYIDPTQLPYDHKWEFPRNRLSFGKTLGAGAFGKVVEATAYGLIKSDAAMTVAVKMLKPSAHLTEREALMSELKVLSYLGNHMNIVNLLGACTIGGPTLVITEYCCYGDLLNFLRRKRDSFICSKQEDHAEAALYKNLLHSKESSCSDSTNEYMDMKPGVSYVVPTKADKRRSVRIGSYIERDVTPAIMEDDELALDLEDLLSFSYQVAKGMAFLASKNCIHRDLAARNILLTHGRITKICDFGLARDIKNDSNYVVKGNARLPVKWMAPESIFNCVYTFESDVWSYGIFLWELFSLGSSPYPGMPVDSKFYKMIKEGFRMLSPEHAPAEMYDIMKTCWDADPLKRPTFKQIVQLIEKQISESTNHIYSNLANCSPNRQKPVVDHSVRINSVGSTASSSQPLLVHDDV
Protocol: In this assay, the oxidation of NADH (thus the decrease at A340 nm) was continuously monitored spectrophometrically. […] The absorption at 340 nm was monitored continuously for 0.5 hours at 30° C. on Polarstar Optima plate reader (BMG). The reaction rate was calculated using the 0 to 0.5 h time frame. Percent inhibition was obtained by comparison of reaction rate with that of a control (i.e. with no test compound). IC50 values were calculated from a series of percent inhibition values determined at a range of inhibitor concentrations using software routines as implemented in the GraphPad Prism software package.

PDGFRα kinase = target: T4, PDGFRα kinase (Homo sapiens, UniProt P16234); test: PDGFRα Kinase Assay; format: biochemical; details: read-out: PDGFRa Enzyme Assay
T4 construct: purchased Invitrogen
T4 sequence (P16234 24-1089): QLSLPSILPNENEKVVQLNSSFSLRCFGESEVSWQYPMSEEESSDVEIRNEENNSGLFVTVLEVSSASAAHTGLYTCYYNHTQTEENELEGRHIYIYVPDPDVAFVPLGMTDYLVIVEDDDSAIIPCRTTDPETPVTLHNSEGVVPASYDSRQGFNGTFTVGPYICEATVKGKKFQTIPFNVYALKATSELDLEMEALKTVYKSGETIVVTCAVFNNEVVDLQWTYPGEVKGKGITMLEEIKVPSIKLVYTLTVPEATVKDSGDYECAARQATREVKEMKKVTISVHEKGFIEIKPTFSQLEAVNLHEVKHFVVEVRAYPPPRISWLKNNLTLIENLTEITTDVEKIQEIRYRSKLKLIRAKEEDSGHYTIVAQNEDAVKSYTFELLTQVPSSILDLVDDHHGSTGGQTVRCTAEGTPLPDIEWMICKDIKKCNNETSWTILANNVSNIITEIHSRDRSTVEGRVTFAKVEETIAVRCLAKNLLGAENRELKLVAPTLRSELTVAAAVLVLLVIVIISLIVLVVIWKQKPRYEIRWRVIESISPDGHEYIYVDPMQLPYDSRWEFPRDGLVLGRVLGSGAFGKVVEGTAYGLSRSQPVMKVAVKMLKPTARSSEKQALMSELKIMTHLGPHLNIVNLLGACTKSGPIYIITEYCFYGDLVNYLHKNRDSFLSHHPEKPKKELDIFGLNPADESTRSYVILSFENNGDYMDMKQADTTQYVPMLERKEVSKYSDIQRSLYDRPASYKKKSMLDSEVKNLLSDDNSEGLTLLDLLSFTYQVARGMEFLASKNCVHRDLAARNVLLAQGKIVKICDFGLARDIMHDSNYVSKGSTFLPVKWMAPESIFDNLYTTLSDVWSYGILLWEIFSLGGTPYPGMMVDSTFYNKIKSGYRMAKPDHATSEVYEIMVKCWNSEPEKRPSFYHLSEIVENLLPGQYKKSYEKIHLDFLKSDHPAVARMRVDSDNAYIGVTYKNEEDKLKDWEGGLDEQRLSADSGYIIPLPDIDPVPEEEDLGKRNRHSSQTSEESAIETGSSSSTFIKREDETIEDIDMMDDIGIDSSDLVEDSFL
Protocol: (§2) Activity of PDGFRα kinase was determined by following the production of ADP from the kinase reaction through coupling with the pyruvate kinase/lactate dehydrogenase system. In this assay, the oxidation of NADH (thus the decrease at A340 nm) was continuously monitored spectrophometrically. The reaction mixture (100 μl) contained PDGFRα (Invitrogen, 10 nM), polyE4Y (1 mg/ml), MgCl2 (10 mM), pyruvate kinase (4 units), lactate dehydrogenase (0.7 units), phosphoenol pyruvate (1 mM) and NADH (0.28 mM) and ATP (500 μM) in a 90 mM Tris buffer containing 0.2% octyl-glucoside and 1% DMSO, pH 7.5. The inhibition reaction was started by mixing serial diluted test compound with the above reaction mixture. The absorption at 340 nm was monitored continuously for 4 hours at 30° C. on a Polarstar Optima or Synergy 2 plate reader. The reaction rate was calculated using the 2 to 3 h time frame. Percent inhibition was obtained by comparison of reaction rate with that of a control (i.e. with no test compound). IC50 values were calculated from a series of percent inhibition values determined at a range of inhibitor concentrations using software routines as implemented in the GraphPad Prism software package.

[3] = target: KDR kinase (Seq ID No. 3) (Homo sapiens, UniProt P35968, DEL940-989/E990V); test: KDR Kinase Assay (assays K1, K2, K3); format: biochemical; details: assay variant K1, K2 or K3 not stated; read-out: KDR Enzyme Assay
Chain of KDR kinase (Seq ID No. 3) (P35968 with tags, fused parts or gaps DEL940-989/E990V): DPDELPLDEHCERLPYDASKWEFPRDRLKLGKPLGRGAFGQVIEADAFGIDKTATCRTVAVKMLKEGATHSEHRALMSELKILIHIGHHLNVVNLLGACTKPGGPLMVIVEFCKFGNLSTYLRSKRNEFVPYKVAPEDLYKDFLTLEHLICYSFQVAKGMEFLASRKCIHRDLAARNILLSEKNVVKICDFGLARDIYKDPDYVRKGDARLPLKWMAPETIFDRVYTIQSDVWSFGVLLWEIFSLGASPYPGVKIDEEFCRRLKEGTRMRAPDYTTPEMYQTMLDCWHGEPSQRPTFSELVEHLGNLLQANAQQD

Mo-7e pKIT = target: T5, Mo-7e pKIT (Homo sapiens, UniProt P10721); test: Mo-7e pKIT cellular assay; format: cell-based; details: Mo-7e cells
T5 construct: endogenous in cells; host or cells: Mo-7e

FMS kinase = target: T6, FMS kinase (Homo sapiens, UniProt P07333); test: FMS Kinase Assay; format: biochemical; details: read-out: FMS Enzyme Assay
T6 construct: purchased Invitrogen or Millipore
T6 sequence (P07333 20-972): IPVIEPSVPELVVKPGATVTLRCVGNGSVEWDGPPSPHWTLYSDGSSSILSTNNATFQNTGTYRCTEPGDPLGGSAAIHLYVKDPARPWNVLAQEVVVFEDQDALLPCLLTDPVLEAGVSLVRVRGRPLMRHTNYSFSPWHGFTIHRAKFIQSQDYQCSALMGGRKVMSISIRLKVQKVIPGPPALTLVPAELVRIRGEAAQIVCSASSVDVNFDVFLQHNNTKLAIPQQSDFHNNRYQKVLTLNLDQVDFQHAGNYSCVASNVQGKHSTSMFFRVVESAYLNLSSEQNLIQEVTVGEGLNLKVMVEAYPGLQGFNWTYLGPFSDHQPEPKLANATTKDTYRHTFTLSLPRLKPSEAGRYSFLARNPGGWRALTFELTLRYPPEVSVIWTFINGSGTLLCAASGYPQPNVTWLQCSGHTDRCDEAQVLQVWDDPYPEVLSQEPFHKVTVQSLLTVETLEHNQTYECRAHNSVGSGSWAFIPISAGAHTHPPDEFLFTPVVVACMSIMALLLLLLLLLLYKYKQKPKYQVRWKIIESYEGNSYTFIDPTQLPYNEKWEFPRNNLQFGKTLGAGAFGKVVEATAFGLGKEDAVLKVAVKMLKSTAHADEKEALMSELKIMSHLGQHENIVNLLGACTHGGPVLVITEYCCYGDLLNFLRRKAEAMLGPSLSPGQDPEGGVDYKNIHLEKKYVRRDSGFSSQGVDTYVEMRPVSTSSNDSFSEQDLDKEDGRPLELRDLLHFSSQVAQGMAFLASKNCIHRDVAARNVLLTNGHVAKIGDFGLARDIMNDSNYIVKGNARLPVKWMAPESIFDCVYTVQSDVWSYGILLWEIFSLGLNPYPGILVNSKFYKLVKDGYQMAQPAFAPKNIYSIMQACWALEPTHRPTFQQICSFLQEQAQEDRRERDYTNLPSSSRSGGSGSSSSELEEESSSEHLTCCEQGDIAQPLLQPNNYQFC
Protocol: as §2, with “In” for “Activity of PDGFRα kinase was determined by following the production of ADP from the kinase reaction through coupling with the pyruvate kinase/lactate dehydrogenase system. In”, “FMS (purchased from Invitrogen or Millipore, 6” for “PDGFRα (Invitrogen, 10”

phospho-VEGF R2 = target: T7, phospho-VEGF R2 (Homo sapiens, UniProt P35968); test: HUVEC VEGF/KDR ELISA (phospho-VEGF R2 after VEGF stimulation); format: cell-based; details: 4 h compound, 100 ng/mL VEGF 5 min, read-out: HUVEC pKDR
T7 construct: host or cells: HUVEC
Protocol: HUVEC (Human umbilical vein endothelial cell) cells were obtained from Lonza (Lonza, Walkersville, Md.). Briefly, cells were grown in EGM-2 (Lonza, Walkersville, Md.) at 37 degrees Celsius, 5% CO2, 95% humidity. Cells were allowed to expand until reaching 90-95% saturation at which point they were subcultured or harvested for assay use. For assay use, cells were harvested and grown in EGM-2 medium supplemented with 2% FBS (Lonza, Walkersville, Md.).
Twenty-five thousand cells were added per well in a 96-well black clear bottom plate (Corning, Corning, N.Y.). Cells were then incubated overnight at 37 degrees Celsius, 5% CO2, 95% humidity. A serial dilution of test compound was dispensed into another 96-well black clear bottom plate (Corning, Corning, N.Y.) containing EBM-2 supplemented with 2% FBS. Compound was added to plates containing cells and incubated for 4 hours at 37 degrees Celsius, 5% CO2, 95% humidity. Cells were stimulated with 100 ng/mL VEGF (R&D Systems, Minneapolis, Minn.) for 5 minutes, then lysed. Cell lysates were used to detect phospho-VEGF R2 using DuoSet IC HUVEC VEGF/KDR ELISA (R&D Systems, Minneapolis, Minn.). Data was analyzed using Prism software (Graphpad, San Diego, Calif.) to calculate IC50's.

M-NFS-60 cells = test: M-NFS-60 Cell Proliferation Assay (resazurin); format: cell-based; details: 67 h + 5 h resazurin
Protocol: Cells were allowed to expand until reaching saturation at which point they were subcultured or harvested for assay use.
M-NFS-60 Cell Proliferation Assay
as §1, with “384-well” for “96-well”, “Two thousand” for “For each cell line,”, “hundred” for “thousand”, “50” for “200”, “CO2, and” for “CO2,”

| Compound | IC50 (PDGFRβ) [nM] | IC50 [1] [nM] | IC50 [2] [nM] | IC50 (PDGFRα kinase) [nM] | IC50 [3] [nM] | IC50 (Mo-7e pKIT) [nM] | IC50 (FMS kinase) [nM] | IC50 (EBC-1 cells; Homo sapiens) [nM] | IC50 (EBC-1 cells) [nM] | IC50 (phospho-VEGF R2) [nM] | IC50 (M-NFS-60 cells) [nM] |
| --- | --- | --- | --- | --- | --- | --- | --- | --- | --- | --- | --- |
| Cn1cc(-c2cc(Oc3cc(F)c(NC(=O)NC(=O)Cc4ccc(F)cc4)cc3F)ccn2)cn1 [Example 42, 1-(2,5-difluoro-4-(2-(1-methyl-1H-pyrazol-4-yl)pyridin-4-yloxy)phenyl)-3-(2-(4-fluorophenyl)acetyl)urea] | < 10000 | < 200 | < 200 | < 200 | < 10000 | < 2000 |  | < 200 |  |  |  |
| Cc1ccc(NC(=O)C2(C(=O)Nc3ccc(Oc4ccnc(-c5cnn(C)c5)c4)cc3F)CC2)cc1 [Example 23, N-(2-fluoro-4-(2-(1-methyl-1H-pyrazol-4-yl)pyridin-4-yloxy)phenyl)-N′-p-tolylcyclopropane-1,1-dicarboxamide] | < 10000 | < 2000 | < 10000 | < 10000 | < 10000 |  | < 2000 | < 2000 |  |  |  |
| N-(2,5-difluoro-4-(2-(1-methyl-1H-pyrazol-4-yl)pyridin-4-yloxy)phenyl)-N-(4-fluorophenyl)cyclopropane-1,1-dicarboxamide [Example 40] | < 10000 | < 200 | < 200 | < 2000 | < 200 |  |  |  | < 200 | < 2000 |  |
| Cn1cc(-c2cc(Oc3ccc(NC(=O)C4(C(=O)Nc5ccc(F)cc5)CC4)nc3)ccn2)cn1 [Example 41, N-(4-fluorophenyl)-N′-(5-(2-(1-methyl-1,4-pyrazol-4-yl)pyridin-4-yloxy)pyridin-2-yl)cyclopropane-1,1-dicarboxamide] | < 10000 | < 2000 | < 2000 | < 2000 | < 2000 |  | < 200 |  |  |  | < 10000 |
| Cc1nn(C)cc1-c1cc(Oc2cc(F)c(NC(=O)C3(C(=O)Nc4ccc(F)cc4)CC3)cc2F)ccn1 [Example 49, N-(4-(2-(1,3-Dimethyl-1H-pyrazol-4-yl)pyridin-4-yloxy)-2,5-difluorophenyl)-N′-(4-fluorophenyl)cyclopropane-1,1-dicarboxamide] | < 10000 | < 200 | < 200 | < 10000 | < 2000 |  | < 2000 | < 2000 |  |  |  |

Continued, in another order:

| IC50 (PDGFRβ) [nM] | IC50 [1] [nM] | IC50 [2] [nM] | IC50 (PDGFRα kinase) [nM] | IC50 [3] [nM] | IC50 (Mo-7e pKIT) [nM] | IC50 (FMS kinase) [nM] | Compound | IC50 (EBC-1 cells; Homo sapiens) [nM] | IC50 (EBC-1 cells) [nM] | IC50 (phospho-VEGF R2) [nM] | IC50 (M-NFS-60 cells) [nM] |
| --- | --- | --- | --- | --- | --- | --- | --- | --- | --- | --- | --- |
| < 2000 | < 200 | < 200 | < 2000 | < 2000 |  | < 200 | Cc1cc(NC(=O)C2(C(=O)Nc3ccc(F)cc3)CC2)c(F)cc1Oc1ccnc(-c2cnn(C)c2)c1 [Example 51, N-(2-fluoro-5-methyl-4-(2-(1-methyl-1H-pyrazol-4-yl)pyridin-4-yloxy)phenyl)-N′-(4-fluorophenyl)cyclopropane-1,1-dicarboxamide] | < 2000 |  |  |  |
| < 10000 |  | < 10000 | < 2000 | < 2000 |  | < 200 | Cn1cc(-c2cc(Oc3ccc(NC(=O)C4(C(=O)Nc5ccc(F)cc5)CC4)c(F)c3)ccn2)cn1 [Example 7, N-(2-fluoro-4-(2-(1-methyl-1H-pyrazol-4-yl)pyridin-4-yloxy)phenyl)-N′-(4-fluorophenyl)cyclopropane-1,1-dicarboxamide] | < 200 |  | < 2000 |  |
| < 10000 | < 200 | < 200 | < 10000 | < 2000 | < 200 |  | Cn1cc(-c2cc(Oc3cc(F)c(NC(=O)C4(C(=O)Nc5ccccc5)CC4)cc3F)ccn2)cn1 [Example 45, N-(2,5-difluoro-4-(2-(1-methyl-1H-pyrazol-4-yl)pyridin-4-yloxy)phenyl)-N′-phenylcyclopropane-1,1-dicarboxamide] | < 200 |  |  |  |
| < 2000 | < 2000 | < 2000 | < 2000 | < 2000 |  | < 200 | Cn1cc(-c2cc(Oc3ccc(NC(=O)C4(C(=O)Nc5ccc(Cl)cc5)CC4)c(F)c3)ccn2)cn1 [Example 22, N-(4-chlorophenyl)-N′-(2-fluoro-4-(2-(1-methyl-1H-pyrazol-4-yl)pyridin-4-yloxy)phenyl)cyclopropane-1,1-dicarboxamide] | < 2000 |  |  |  |
